According to publication PMC11684029, “Discovery of VU6024578/BI02982816: An mGlu1 Positive Allosteric Modulator with Efficacy in Preclinical Antipsychotic and Cognition Models” (Journal of Medicinal Chemistry, 2024):

Key:
[1] = predicted hepatic clearance; type: in vitro ADME, dog
Description: (§1) Across species, 19d had acceptable fraction unbound in both plasma (fu (plasma): 0.03 (human), 0.041 (rat), 0.025 (cyno), 0.039 (dog) and 0.056 (mouse)) and brain (fu (brain): 0.034 (rat) and 0.081 (mouse)).

[2] = rat IV plasma:brain level (PBL) PK; type: in vivo
[3] = plasma exposure in satellite mice; type: in vivo; conditions: male, C57BL/6JRj, mouse, sc
Description: We have also employed here event-related potentials (ERPs) and auditory-evoked oscillations, which serve as critical translational biomarkers, to assess the impact of our investigational drug on sensory processing and cognitive functions, providing valuable data on its potential efficacy in treating disorders like schizophrenia. Detailed description of the methodology, setup specifications and recording procedure and analysis of the 40 Hz auditory steady-state response (ASSR) protocol can be found in Schuelert et al.[27] […] Reduced entrainment of gamma oscillation reflects abnormalities in basic sensory registration and processing but is also associated with impaired higher cognitive functions.[32] ASSR can also be reliably impaired preclinically by different NMDA receptor antagonists.[33],[34] […] Abnormalities associated with the filtering or “gating” of sensory information are among the most consistent findings in schizophrenia research.[35] N100 gating deficits also correlated with negative-cognitive deficits dimensions of schizophrenia[36] and can be modeled preclinically with NMDA receptor antagonists.[37]19d reversed N1 sensory gating deficit induced by MK-801 with the highest dose of 10 mg/kg (Figure 12B). Mean plasma exposures in satellite mice after subcutaneous administration of 19d at 0.8, 4, and 10 mg/kg were 187, 1207, and 2490 nM, respectively.
Male C57BL/6JRj mice (12–14 weeks old, 28–30 g, n = 13–19 per treatment arm) (Janvier Laboratories, Le Genest-Saint-Isle, France) were group housed prior to surgery (four animals per cage) and single housed after surgery under standard light-dark conditions (12 h/12 h, lights on 06:00–18:00) with food and tap water available ad libitum. C57BL/6JRj mice were used as they are well suited for neurophysiological cortical network investigations using EEG techniques (Schuelert et al., 2018). […]

P-gp (MDR1) = biological target: T1, P-gp (MDR1) (Homo sapiens, UniProt P08183); test: MDCK-MDR1 permeability/efflux; type: in vitro ADME; conditions: human
T1 construct: expressed in transfected cells; host or cells: MDCK-MDR1

human P-gp = biological target: T2, human P-gp (Homo sapiens, UniProt P08183); test: MDCK-MDR1 permeability/efflux; type: in vitro ADME
T2 construct: expressed in transfected cells; host or cells: MDCK-MDR1

[4] = predicted hepatic clearance; type: in vitro ADME, cyno
Description: as §1

CCK2 (CCKB) = biological target: T3, CCK2 (CCKB) (Homo sapiens, UniProt P32239); test: Eurofins radioligand binding panel; conditions: agonist radioligand
T3 construct: Eurofins (panel run as a service)
Description: Table S1. Eurofins Lead Profiling Screen Data
This is a radioligand binding panel of 80 targets including GPCRs, ion channels, transporters and nuclear hormones. Biochemical assay results are presented as the percent inhibition of specific […]
Results showing an inhibition or stimulation higher than 50% are considered to represent significant effect and are highlighted […]
Target / Protein Species % Inhibition at 10 […]
CCK2 (CCKB) (agonist radioligand) human -4

[5] = brain exposure in rat AHL Cmax versus Ctrough study; type: in vivo
Description: Based on these positive behavioral data and the clear PK/PD relationship tied to achieving free brain levels at, or above, the mGlu1 PAM EC50, we next wanted to define the role of Cmax versus Ctrough drug (19d) concentrations in driving the PK/PD relationship. To accomplish this, pretreatment times and doses were calculated based upon previous PK (see Supporting Information Figure S3)[20] data to target free brain concentrations at and below the in vitro EC50 at the time of amphetamine challenge. Rats were pretreated with 3 mg/kg 19d or vehicle after habituation to the locomotor chambers are described in Figure 9A. Rats pretreated with 19d (10–60 mg/kg) or vehicle were administered compound prior to starting the amphetamine-induced hyperlocomotion experiment as depicted in Figure 9B-D. Ambulations were evaluated for 90 min post amphetamine treatment for all dosing groups. Pretreatment of 19d, chamber habituation, amphetamine treatment and ambulation recording times are outlined for each dosing group in Figure 9. Blood and brain samples were obtained at the end of testing (EOT) to determine 19d levels at the end of the study (Table 6).
The terminal free brain concentrations for this dosing group were 40 nM. […]

T1 sequence (P08183 whole entry): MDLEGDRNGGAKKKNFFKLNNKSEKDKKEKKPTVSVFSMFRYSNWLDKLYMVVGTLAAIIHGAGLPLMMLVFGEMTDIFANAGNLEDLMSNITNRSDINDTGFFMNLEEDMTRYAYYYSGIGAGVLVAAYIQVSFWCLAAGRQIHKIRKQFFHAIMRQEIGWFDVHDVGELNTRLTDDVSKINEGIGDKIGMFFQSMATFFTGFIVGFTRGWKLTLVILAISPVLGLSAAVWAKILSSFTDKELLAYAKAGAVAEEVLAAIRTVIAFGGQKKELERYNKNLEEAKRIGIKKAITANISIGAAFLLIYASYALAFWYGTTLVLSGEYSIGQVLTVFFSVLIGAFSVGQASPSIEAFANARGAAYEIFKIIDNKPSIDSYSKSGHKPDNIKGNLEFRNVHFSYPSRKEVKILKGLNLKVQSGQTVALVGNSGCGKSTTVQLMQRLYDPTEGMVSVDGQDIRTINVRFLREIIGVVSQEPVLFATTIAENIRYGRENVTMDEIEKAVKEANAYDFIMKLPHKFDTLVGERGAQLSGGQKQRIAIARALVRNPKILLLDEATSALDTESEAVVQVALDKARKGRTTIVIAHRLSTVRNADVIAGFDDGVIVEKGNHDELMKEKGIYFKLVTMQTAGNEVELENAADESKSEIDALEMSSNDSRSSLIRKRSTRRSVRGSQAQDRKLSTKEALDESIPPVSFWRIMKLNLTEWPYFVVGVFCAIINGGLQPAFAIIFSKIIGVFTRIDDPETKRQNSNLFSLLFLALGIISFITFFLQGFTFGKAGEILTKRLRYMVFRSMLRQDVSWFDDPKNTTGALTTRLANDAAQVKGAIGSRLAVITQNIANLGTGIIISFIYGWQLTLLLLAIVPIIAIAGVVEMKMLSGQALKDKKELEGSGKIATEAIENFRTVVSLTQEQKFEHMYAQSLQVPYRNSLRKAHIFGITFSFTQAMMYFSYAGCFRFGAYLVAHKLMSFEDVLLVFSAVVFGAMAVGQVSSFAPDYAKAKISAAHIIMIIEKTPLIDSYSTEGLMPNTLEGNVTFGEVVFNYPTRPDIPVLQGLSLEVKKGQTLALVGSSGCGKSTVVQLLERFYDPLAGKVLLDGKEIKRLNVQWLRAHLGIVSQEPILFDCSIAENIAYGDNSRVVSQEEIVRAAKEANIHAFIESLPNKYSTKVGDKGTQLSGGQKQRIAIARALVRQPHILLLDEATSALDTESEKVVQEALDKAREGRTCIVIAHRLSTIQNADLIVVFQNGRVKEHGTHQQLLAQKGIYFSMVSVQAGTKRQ
T2 sequence (P08183 whole entry): as above
T3 sequence (P32239 whole entry): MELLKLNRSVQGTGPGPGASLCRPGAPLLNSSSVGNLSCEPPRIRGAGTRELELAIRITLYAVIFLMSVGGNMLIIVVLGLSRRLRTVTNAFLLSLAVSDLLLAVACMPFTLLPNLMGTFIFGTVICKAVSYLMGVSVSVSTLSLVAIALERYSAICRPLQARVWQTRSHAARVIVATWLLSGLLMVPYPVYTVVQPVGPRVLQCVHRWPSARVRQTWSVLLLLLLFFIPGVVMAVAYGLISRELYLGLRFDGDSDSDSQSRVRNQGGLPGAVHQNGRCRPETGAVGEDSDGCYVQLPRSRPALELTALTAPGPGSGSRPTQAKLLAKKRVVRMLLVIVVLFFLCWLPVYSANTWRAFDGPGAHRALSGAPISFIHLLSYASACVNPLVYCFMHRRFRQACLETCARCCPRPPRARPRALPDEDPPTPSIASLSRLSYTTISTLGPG

## Cn1nc(-c2ccnn2C)cc1CNC(=O)c1cc(-c2ccco2)ccc1Cl [Compound 19d, 2-Chloro-N-((1,2′-dimethyl-1H,2’H-[3,3′-bipyrazol]-5-yl)methyl)-5-(furan-2-yl)benzamide]
[1]
  CLhep, dog: 23 mL/min/kg
[2]; Sprague-Dawley, 0.25 mg/kg/compound, rat IV PBL, brain:plasma
  Kp at 15 min: 0.99
[2]; Sprague-Dawley, brain, 0.25 mg/kg/compound, rat IV PBL
  Kp uu at 15 min: 0.82
[2]; plasma, iv, 1 mg/kg, rat PK PBL experiment
  half-life: 3.6 h
[2]; plasma, iv, 1 mg/kg, rat PK PBL experiment, read-out: CLp
  clearance: 8.3 mL/min/kg
[2]; plasma, iv, 1 mg/kg, rat PK PBL experiment, read-out: MRT
  MRT: 3.5 h
[2]; plasma, iv, 1 mg/kg, rat PK PBL experiment, read-out: Vss
  Vd: 1.78 L/kg
[3]; 0.8 mg/kg s.c.
  concentration at 60 min: 187 nM
[3]; 4 mg/kg s.c.
  concentration at 60 min: 1210 nM
[3]; 10 mg/kg s.c.
  concentration at 60 min: 2490 nM
P-gp (MDR1)
  Papp: 73 ×10⁻⁶ cm/s
Human P-gp
  human P-gp substrate, in words: not a human P-gp substrate
[4]
  CLhep, cyno: 31 mL/min/kg
CCK2 (CCKB)
  inhibition at 10 µM: -4%
[5]; 60 mg/kg, at Tmax
  Cmax over rat in vitro potency: 6.8 fold
[5]; Sprague-Dawley, brain, oral, 3 mg/kg, pretreatment time 2.5 hr, read-out: Brain Unbound @EOT
  concentration at 2.5 h: 40 nM
[5]; Sprague-Dawley, brain, oral, 10 mg/kg, pretreatment time 6.5 hr, read-out: Brain Unbound @EOT
  concentration at 6.5 h: 44 nM
[5]; Sprague-Dawley, brain, oral, 60 mg/kg, pretreatment time 15 hr, read-out: Brain Unbound @EOT
  concentration at 15 h: 3 nM
[5]; Sprague-Dawley, brain, oral, 60 mg/kg, pretreatment time 30 hr, read-out: Brain Unbound @EOT
  concentration at 30 h: 6 nM
